Where two headings read alike, the source gives them in different places.
Legend:
[1] = target: T1, glutathione-S-transferase (GST) tagged LXRbeta LBD (ligand binding domain) (Homo sapiens, UniProt P55055); test: LanthaScreen TR-FRET Liver X Receptor Coactivator Assay, co-activator recruitment to LXRbeta LBD; assay type: biochemical
T1 construct: purchased Invitrogen pv4658.pps
T1 sequence (P55055 222-460 limits assumed): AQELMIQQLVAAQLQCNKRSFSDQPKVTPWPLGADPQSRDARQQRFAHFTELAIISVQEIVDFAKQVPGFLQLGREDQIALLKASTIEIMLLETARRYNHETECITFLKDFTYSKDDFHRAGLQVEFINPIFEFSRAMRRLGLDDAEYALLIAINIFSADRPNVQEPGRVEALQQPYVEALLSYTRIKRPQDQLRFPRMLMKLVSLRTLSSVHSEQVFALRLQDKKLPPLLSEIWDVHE
In short: (§1)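 Efficacy (Emax) and inflection-point potency were scaled to reference agonist T0901317, acting on both LXR subtypes. Ligand-driven coactivator peptide recruitment was detected by TR-FRET after room-temperature incubation with terbium anti-GST antibody.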

[2] = target: T2, glutathione-S-transferase (GST) tagged LXRalpha LBD (ligand binding domain) (Homo sapiens, UniProt Q13133); test: LanthaScreen TR-FRET Liver X Receptor Coactivator Assay, co-activator recruitment to LXRalpha LBD; assay type: biochemical; conditions: for EC50 / LXR alpha IP (nM): potency (Inflection Point, IP), co-activator recruitment to LXRalpha LBD, in relation to T0901317; for EC50: read-out: LXR alpha IP; for LXR alpha IP (Inflection Point, potency): co-activator recruitment to GST-LXRalpha LBD, TR-FRET
T2 construct: purchased Invitrogen pv4655
T2 sequence (Q13133 209-447 limits assumed): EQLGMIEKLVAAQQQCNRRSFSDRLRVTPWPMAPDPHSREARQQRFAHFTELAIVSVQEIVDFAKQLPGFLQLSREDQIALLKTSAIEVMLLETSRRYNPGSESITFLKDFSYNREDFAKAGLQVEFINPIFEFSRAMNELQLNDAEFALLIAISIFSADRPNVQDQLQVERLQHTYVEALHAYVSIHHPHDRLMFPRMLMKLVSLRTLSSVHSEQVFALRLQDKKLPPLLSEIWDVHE
In short: as §1

[3] = LXR beta IP (nM), potency (Inflection Point, IP), co-activator recruitment to LXRbeta LBD, in relation to T0901317
[4] = read-out: LXR beta Activity @ max dose (%)
[5] = efficacy at max dose, in relation to reference dual agonist T0901317, read-out: LXR beta Activity @ max dose (%)
[6] = potency (Inflection Point, IP), co-activator recruitment to LXRbeta LBD, in relation to T0901317, read-out: LXR beta IP
[7] = efficacy at max dose, in relation to reference dual agonist T0901317, read-out: LXR alpha Activity @ max dose (%)
[8] = co-activator recruitment to GST-LXRbeta LBD, TR-FRET, read-out: LXR beta IP (Inflection Point, potency)
[9] = efficacy in relation to reference dual agonist T0901317, read-out: LXR beta Activity @ max dose
[10] = efficacy in relation to reference dual agonist T0901317, read-out: LXR alpha Activity @ max dose

Row | EC50 [2] | Emax [1, 5] | EC50 [1, 6] | Emax [2, 7] | SMILES | further results
1 |  | 75% | 37 nM | 18% | CN(C)C(=O)c1ccc(N2CCC(CC3CCN(C(=O)C(N)(c4cccc(Cl)c4)C(F)(F)F)CC3)CC2)cc1Cl (stereo not drawn) [Example 2-167, 4-[4-({1-[2-amino-2-(3-chlorophenyl)-3,3,3-trifluoro-propanoyl]piperidin-4-yl}methyl)piperidin-1-yl]-2-chloro-N,N-dimethyl-benzamide] | LXR alpha IP (nM) [2]: NO IP
2 | 413 nM | 69% | 46 nM | 23% | CN(C)C(=O)c1ccc(N2CCC(CC3CCN(C(=O)[C@](O)(c4cccc(Br)c4)C(F)(F)F)CC3)CC2)cc1 [Example 2-143, 4-[4-({1-[(2R)-2-(3-bromo-phenyl)-3,3,3-trifluoro-2-hydroxy-propanoyl]piperidin-4-yl}methyl)piperidin-1-yl]-N,N-dimethyl-benzamide] | 
3 | 148 nM | 153% | 7 nM | 60% | CN(C)C(=O)c1ccc(N2CCC(CC3CCN(C(=O)[C@](O)(c4ccccc4)C(F)(F)C(F)(F)F)CC3)CC2)nc1Cl [Example 7-60, 2-chloro-N,N-dimethyl-6-[4-({1-[(2R)-3,3,4,4,4-pentafluoro-2-hydroxy-2-phenylbutanoyl]piperidin-4-yl}methyl)piperidin-1-yl]pyridine-3-carboxamide] | 
4 |  | 31% | 191 nM | 0% | COc1cccc([C@@](O)(C(=O)N2CCC(CC3CCN(c4ccc(C(=O)N(C)C)cc4)CC3)CC2)C(F)F)c1 [Example 2-130, 4-[4-({1-[(2R)-3,3-difluoro-2-hydroxy-2-(3-methoxy-phenyl)propanoyl]piperidin-4-yl}methyl)piperidin-1-yl]-N,N-dimethyl-benzamide] | LXR alpha IP (nM) [2]: NO IP
5 |  | 30% | 27 nM | 0% | COc1cc(Cl)cc([C@@](O)(C(=O)N2CCC(C)(CC3CCN(c4ccc(C(=O)N(C)C)c(Cl)c4)CC3)CC2)C(F)(F)F)c1 [Example 2-48, 2-chloro-4-[4-({1-[(2R)-2-(3-chloro-5-methoxyphenyl)-3,3,3-trifluoro-2-hydroxy-propanoyl]-4-methyl-piperidin-4-yl}methyl)piperidin-1-yl]-N,N-dimethyl-benzamide] | LXR alpha IP (nM) [2]: NO IP
6 | 227 nM | 58% | 7 nM | 20% | CN(C)C(=O)c1ccc(N2CCC(CC3CCN(C(=O)[C@](O)(c4cccc(OC(F)F)c4)C(F)(F)F)CC3)CC2)cc1Cl [Example 2-116, 2-chloro-4-{4-[(1-{(2R)-2-[3-(difluoro-methoxy)phenyl]-3,3,3-trifluoro-2-hydroxy-propanoyl}piperidin-4-yl)methyl]piperidin-1-yl}-N,N-dimethyl-benzamide] | 
7 | 464 nM | 80% | 17 nM | 30% | CN(C)C(=O)c1ncc(N2CCC(CC3CCN(C(=O)C(O)(c4cccc(F)c4)C(F)(F)F)CC3)CC2)cc1Cl (stereo not drawn) [Example 2-7, 3-chloro-N,N-dimethyl-5-[4-({1-[3,3,3-trifluoro-2-(3-fluorophenyl)-2-hydroxy-propanoyl]piperidin-4-yl}methyl)piperidin-1-yl]pyridine-2-carboxamide] | 
8 | 309 nM | 14% | 238 nM | 4% | COc1cc(C)cc([C@@](O)(C(=O)N2CCC(CC3CCN(c4ccc(C(=O)N(C)C)c(Cl)c4)CC3)CC2)C(F)(F)F)c1 [Example 2-107, 2-chloro-N,N-dimethyl-4-[4-({1-[(2R)-3,3,3-trifluoro-2-hydroxy-2-(3-methoxy-5-methylphenyl)propanoyl]piperidin-4-yl}methyl)piperidin-1-yl]benzamide] | 
9 |  | 114% | 78 nM | 16% | COc1cc(F)cc([C@](O)(C(=O)N2CCC(CC3CCN(c4ccc(C(=O)N(C)C)c(Cl)n4)CC3)CC2)C(F)(F)F)c1 [Example 7-102, 2-chloro-N,N-dimethyl-6-[4-({1-[(2S)-3,3,3-trifluoro-2-(3-fluoro-5-methoxyphenyl)-2-hydroxypropanoyl]piperidin-4-yl}methyl)piperidin-1-yl]pyridine-3-carboxamide] | LXR alpha IP (nM) [2]: NO IP
10 | 575 nM | 67% | 49 nM | 15% | Cc1ccsc1C(O)(C(=O)N1CCC(CC2CCN(c3ccc(C(=O)N(C)C)c(Cl)c3)CC2)CC1)C(F)(F)F (stereo not drawn) [Example 2-38, 2-chloro-N,N-dimethyl-4-[4-({1-[3,3,3-trifluoro-2-hydroxy-2-(3-methyl-thiophen-2-yl)propanoyl]piperidin-4-yl}methyl)piperidin-1-yl]benzamide] | 
11 | 678 nM | 62% | 21 nM | 30% | CN(C)CCN(C)C(=O)c1ccc(N2CCC(CC3CCN(C(=O)[C@](O)(c4ccccc4)C(F)(F)F)CC3)CC2)cc1Cl [Example 4-13, 2-chloro-N-[2-(dimethylamino)ethyl]-N-methyl-4-[4-({1-[(2R)-3,3,3-trifluoro-2-hydroxy-2-phenylpropanoyl]piperidin-4-yl}methyl)piperidin-1-yl]benzamide] | 
12 | 2060 nM | 122% | 55 nM | 45% | CN(C)C(=O)c1ccc(N2CCC(CC3CCN(C(=O)[C@@](O)(c4ccccc4F)C(F)(F)F)CC3)CC2)nc1Cl [Example 7-71, 2-chloro-N,N-dimethyl-6-[4-({1-[(2S)-3,3,3-trifluoro-2-(2-fluorophenyl)-2-hydroxypropanoyl]piperidin-4-yl}methyl)piperidin-1-yl]pyridine-3-carboxamide] | 
13 | 482 nM | 96% | 28 nM | 36% | CNC(=O)c1ccc(N2CCC(CC3CCN(C(=O)[C@](O)(c4cccc(OC)c4)C(F)(F)C(F)(F)F)CC3)CC2)cc1Cl [Example 7-124, 2-chloro-N-methyl-4-[4-({1-[(2R)-3,3,4,4,4-pentafluoro-2-hydroxy-2-(3-methoxyphenyl)butanoyl]piperidin-4-yl}methyl)piperidin-1-yl]benzamide] | 
14 |  |  |  |  | COc1cccc(CS(=O)(=O)N2CC(CC3CCN(c4ccc(C(=O)N(C)C)c(Cl)n4)CC3)C2)c1 [Example 14-3, 2-chloro-6-[4({1-[(3-methoxybenzyl)-sulfonyl]azetidin-3-yl}methyl)piperidin-1-yl]-N,N-dimethyl-pyridine-3-carboxamide] | EC50 [1, 8]: 1510 nM; Emax [1, 9]: 48%; LXR alpha IP (Inflection Point, potency) [2]: NO IP; Emax [2, 10]: 5%
15 |  |  |  |  | CN(C)C(=O)c1ccc(N2CCC(CC3CCN(S(=O)(=O)c4cccc(OC(F)F)c4)CC3)CC2)cc1Cl [Example 13-10, 2-chloro-4-{4[(1-{[3-(difluoromethoxy)-phenyl]sulfonyl}-piperidin-4-yl)methyl]-piperidin-1-yl}-N,N-dimethylbenzamide] | EC50 [1, 8]: 104 nM; Emax [1, 9]: 52%; LXR alpha IP (Inflection Point, potency) [2]: NO IP; Emax [2, 10]: 5%

Row | SMILES | EC50 [2] | Emax [1, 5] | EC50 [1, 6] | Emax [2, 7] | further results
16 | CN(C)C(=O)c1ccc(N2CCC(SC3CCN(C(=O)[C@](O)(c4cccc(OC(F)(F)F)c4)C(F)(F)F)CC3)CC2)nc1Cl [Example 9-1, (R)-2-chloro-N,N-dimethyl-6-(4-(1-(3,3,3-trifluoro-2-hydroxy-2-(3-(trifluoromethoxy)phenyl)propanoyl)piperidin-4-ylthio)piperidin-1-yl)nicotinamide] | 546 nM |  |  |  | EC50 [1, 3]: 13 nM; Emax [1, 4]: 60%; Emax ([2]; read-out: LXR alpha Activity @ max dose (%)): 21%
17 | O=C(c1ccc(N2CCC(CC3CCN(C(=O)[C@](O)(c4ccccc4)C(F)(F)F)CC3)CC2)cc1Cl)N1C2CCC1CC2 [Example 4-5, (2R)-3-[4-({1-[4-(7-azabicyclo[2.2.1]hept-7-ylcarbonyl)-3-chlorophenyl]piperidin-4-yl}methyl)piperidin-1-yl]-1,1,1-trifluoro-3-oxo-2-phenylpropan-2-ol] | 401 nM | 53% | 59 nM | 29% | 
18 | COc1cccc([C@@](O)(C(=O)N2CCC(SC3CCN(c4ccc(C(=O)N(C)C)c(Cl)c4)CC3)CC2)C(F)(F)F)c1 [Example 10-1, (R)-2-chloro-N,N-dimethyl-4-(4-(1-(3,3,3-trifluoro-2-hydroxy-2-(3-methoxyphenyl)propanoyl)piperidin-4-ylthio)piperidin-1-yl)benzamide] |  |  |  | 8% | EC50 [1, 3]: 22 nM; Emax [1, 4]: 56%; LXR alpha IP (nM) [2]: NO IP

Reference: patent US10752587B2, “Homobispiperidinyl derivatives as liver X receptor beta agonists, compositions and their use” (Merck Sharp & Dohme Corp., priority 2015, dated 2020)
